These are literature values, as cited in patent publication US7413751B2, “Methods of treatment using a gastric retained losartan dosage” (Depomed, Inc., priority 2001, dated 2008).

Where two headings read alike, the source gives them in different places.

In data set [1] the test system is diastolic pressure response to angiotensin II.

One may read the half-life as the time needed for the level to fall by half in the phase considered. As to `CCCCc1nc(Cl)c(C(=O)O)n1Cc1ccc(-c2ccccc2-c2nn[nH]n2)cc1` [active metabolite of losartan potassium], under “Japanese patients tested”, the half-life was 4 to 5 h. Moreover, for the setting “in vivo”, the half-life is 6 to 9 h and the tmax was 2 to 4 h.
For `CCCCc1nc(Cl)c(CO)n1Cc1ccc(-c2ccccc2-c2nnn[nH]2)cc1.[K]` [losartan potassium, 2-butyl-4-chloro-1[p-(o-1H-tetrazol-5-ylphenyl)benzyl]imidazole-5-methanol monopotassium salt], the “effects at 24 hours” value in data set [1] (25 mg dosage) was “not”; in data set [1] (50 mg and 100 mg dosages), “observed”. In addition, the “peak:trough blood pressure ratio (5-6 hours after dosing: 24 hours after dosing)” value in data set [1] (50 mg dosage) was 60%; in data set [1] (100 mg dosage), 72%. In data set [1] (24 hours after dosing), the “blockade of the diastolic pressure response to angiotensin II” value is listed as “approximately 30%”.
